In article PMC10573892, “β-Lactam TRPM8 Antagonists Derived from Phe-Phenylalaninol Conjugates: Structure–Activity Relationships and Antiallodynic Activity” (International Journal of Molecular Sciences, 2023):

How the values were obtained:
hCGRPR = hCGRPR (Homo sapiens, UniProt O60894+Q16602); test: Radioligand binding at CGRP receptor; details: radioligand [125]hGCRPα
Text: (§1) Furthermore, the investigation extended to measuring the binding affinity of compound 34 to calcitonin gene-related peptide hCGRPR, cannabinoid hCB2 and muscarinic hM3 receptors, which are all relevant to different pain conditions.

[1] = tested on: dorsal root ganglia (DRG) sensory neurons; test: Resting membrane potential of DRG sensory neurons (current clamp Patch-Clamp); type: cell-based; details: 10 µM
Method: We also investigated the effect of β-lactams derivatives on the resting membrane potential (RMP) of dorsal root ganglia (DRG) sensory neurons.
(A) Representative recordings of resting membrane potential measured under current clamp configuration. The traces show the action potentials (APs) firings from DRG neurons elicited by 100 μM menthol (left trace) or in the presence of vehicle (0.5% DMSO) or the β-lactams derivatives ([…]). (B) Changes in the Vm in the absence and in the presence of 10 μM of the β-lactams derivatives. Data were analyzed by one-way ANOVA followed by Bonferroni post hoc test for multiple comparisons (ns = no significance, **** p < = 0.0001) and given as mean ± SEM; n ≥ 40 cells from 4 cultures.

hTRPM3 = hTRPM3 (Homo sapiens, UniProt Q9HCF6); test: TRPM3 channel Ca2+ microfluorimetry (pregnenolone sulfate 50 µM); type: cell-based; details: 10 μM; agonist pregnenolone sulfate 50 µM; read-out: % Channel Inhibition at 10 μM hTRPM3
Sequence of hTRPM3 (Q9HCF6 whole entry): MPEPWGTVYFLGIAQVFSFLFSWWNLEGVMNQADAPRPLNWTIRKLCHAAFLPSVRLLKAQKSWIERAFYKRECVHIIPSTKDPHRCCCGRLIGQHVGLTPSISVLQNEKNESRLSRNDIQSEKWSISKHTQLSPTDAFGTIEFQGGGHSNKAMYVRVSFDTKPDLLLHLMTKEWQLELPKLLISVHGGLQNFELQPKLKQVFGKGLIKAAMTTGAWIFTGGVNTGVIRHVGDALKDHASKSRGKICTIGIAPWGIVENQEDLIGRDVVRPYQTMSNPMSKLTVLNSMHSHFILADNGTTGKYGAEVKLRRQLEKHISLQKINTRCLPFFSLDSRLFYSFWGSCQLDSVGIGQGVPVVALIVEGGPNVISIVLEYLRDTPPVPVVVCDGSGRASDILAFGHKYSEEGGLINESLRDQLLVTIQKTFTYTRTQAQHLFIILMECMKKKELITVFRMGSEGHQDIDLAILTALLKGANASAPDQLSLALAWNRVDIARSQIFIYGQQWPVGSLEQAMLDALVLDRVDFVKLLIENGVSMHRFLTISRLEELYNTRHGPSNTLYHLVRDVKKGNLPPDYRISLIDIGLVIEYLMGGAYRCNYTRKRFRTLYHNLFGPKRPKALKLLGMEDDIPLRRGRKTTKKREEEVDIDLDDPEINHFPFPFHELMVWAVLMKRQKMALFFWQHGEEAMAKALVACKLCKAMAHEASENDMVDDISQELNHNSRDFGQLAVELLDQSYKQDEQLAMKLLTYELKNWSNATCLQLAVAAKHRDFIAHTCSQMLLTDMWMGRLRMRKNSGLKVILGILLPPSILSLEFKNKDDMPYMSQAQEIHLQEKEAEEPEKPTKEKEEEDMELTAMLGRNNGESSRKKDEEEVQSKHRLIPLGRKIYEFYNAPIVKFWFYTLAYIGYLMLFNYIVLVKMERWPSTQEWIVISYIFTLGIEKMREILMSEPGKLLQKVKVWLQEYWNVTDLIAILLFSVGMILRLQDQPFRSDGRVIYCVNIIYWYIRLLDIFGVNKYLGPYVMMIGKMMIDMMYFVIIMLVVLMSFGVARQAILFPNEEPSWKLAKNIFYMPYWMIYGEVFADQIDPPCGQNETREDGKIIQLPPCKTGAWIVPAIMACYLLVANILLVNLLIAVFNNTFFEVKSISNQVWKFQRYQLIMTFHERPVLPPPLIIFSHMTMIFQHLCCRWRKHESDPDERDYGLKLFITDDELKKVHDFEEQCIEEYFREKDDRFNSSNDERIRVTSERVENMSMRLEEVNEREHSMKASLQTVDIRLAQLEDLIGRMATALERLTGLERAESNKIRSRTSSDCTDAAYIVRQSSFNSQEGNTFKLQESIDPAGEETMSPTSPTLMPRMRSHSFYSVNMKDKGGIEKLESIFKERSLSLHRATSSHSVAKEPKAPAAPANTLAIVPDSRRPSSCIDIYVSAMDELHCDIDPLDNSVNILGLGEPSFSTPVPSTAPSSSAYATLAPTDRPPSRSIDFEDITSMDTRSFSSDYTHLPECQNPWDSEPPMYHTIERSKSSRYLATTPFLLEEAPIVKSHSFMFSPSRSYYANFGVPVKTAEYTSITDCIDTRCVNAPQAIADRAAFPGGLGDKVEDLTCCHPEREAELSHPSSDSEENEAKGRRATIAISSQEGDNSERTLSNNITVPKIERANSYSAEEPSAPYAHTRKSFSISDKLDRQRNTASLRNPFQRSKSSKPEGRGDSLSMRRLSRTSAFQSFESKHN
Method: (§2) First, some TRP channels that play a role in temperature integration and nociception were selected, including hTRPV1, hTRPV3, hTRPA1 and TRPM3. Additionally, the evaluation encompassed the hASIC3 channel with widespread distribution within the peripheral nervous system and contributions to the excitability of primary sensory neurons. In each instance, the compound was subjected to evaluation at a consistent concentration of 10 µM.
(§3) Calcium fluorometry, Patch-Clamp assays and in vivo experiments were performed using the methodology previously described for TRPM8 [35] or TRPM3 [61]. In the Patch -Clamp experiments, the intracellular pipette solution contained (in mM) 140 KCl, 5 EGTA, and 10 mM HEPES, adjusted to pH 7.2 with KOH, and the extracellular solution contained (in mM) 140 NaCl, 2 CaCl2, 1 MgCl2, 10 D-glucose and 10 HEPES, adjusted to pH 7.4 with NaOH. Selectivity against TRPV1, TRPV3, TRPA1 and ASIC3 was subcontracted to Eurofins-CEREP or Eurofins-PANLABS (see ref. [35] for more details).

hTRPV1 = target: T1, hTRPV1 (Homo sapiens, UniProt Q8NER1); test: TRPV1 channel Ca2+ microfluorimetry (capsaicin 30 nM); type: cell-based
T1 construct: Eurofins-CEREP or Eurofins-PANLABS (contract assay)
T1 sequence (Q8NER1 whole entry): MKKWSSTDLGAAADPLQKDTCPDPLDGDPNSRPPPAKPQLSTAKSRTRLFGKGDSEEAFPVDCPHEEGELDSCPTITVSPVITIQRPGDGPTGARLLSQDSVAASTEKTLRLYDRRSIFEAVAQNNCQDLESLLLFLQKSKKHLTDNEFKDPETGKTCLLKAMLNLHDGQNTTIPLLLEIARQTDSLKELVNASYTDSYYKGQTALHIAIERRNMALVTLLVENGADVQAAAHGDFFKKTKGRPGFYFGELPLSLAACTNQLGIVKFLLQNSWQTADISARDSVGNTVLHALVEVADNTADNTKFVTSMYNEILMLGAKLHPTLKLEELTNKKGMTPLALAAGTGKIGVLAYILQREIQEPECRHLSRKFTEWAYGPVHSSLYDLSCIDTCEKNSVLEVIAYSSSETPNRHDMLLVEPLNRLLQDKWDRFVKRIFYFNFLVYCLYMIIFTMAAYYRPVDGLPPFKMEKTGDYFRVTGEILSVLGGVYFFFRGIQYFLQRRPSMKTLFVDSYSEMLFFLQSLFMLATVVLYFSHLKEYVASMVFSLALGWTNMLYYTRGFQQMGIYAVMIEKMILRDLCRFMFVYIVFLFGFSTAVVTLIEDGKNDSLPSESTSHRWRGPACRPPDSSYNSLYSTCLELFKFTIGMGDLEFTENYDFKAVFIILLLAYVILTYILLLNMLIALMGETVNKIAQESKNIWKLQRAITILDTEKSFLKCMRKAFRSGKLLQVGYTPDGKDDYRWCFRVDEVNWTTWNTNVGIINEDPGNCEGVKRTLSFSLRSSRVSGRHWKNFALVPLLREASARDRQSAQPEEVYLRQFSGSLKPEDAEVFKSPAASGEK
Text: as §2, with “The effects of compound 34 have been evaluated on different ion channels and receptors implicated in pain-related processes to assess the selectivity for TRPM8 channels. First,” for “First,”
as §3

hCB2 = hCB2 (Homo sapiens, UniProt P34972); test: Radioligand binding at cannabinoid CB2 receptor; details: radioligand [3H]WIN 55212-2
Sequence of hCB2 (P34972 whole entry): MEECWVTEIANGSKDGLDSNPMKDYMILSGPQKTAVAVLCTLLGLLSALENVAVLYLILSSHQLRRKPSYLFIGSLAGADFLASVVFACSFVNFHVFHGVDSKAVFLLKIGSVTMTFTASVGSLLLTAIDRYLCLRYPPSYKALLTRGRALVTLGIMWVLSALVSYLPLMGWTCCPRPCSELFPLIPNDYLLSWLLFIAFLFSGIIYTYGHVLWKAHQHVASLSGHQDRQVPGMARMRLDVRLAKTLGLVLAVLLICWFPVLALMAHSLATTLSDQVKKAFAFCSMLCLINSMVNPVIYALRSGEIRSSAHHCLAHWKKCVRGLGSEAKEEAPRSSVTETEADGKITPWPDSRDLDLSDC
Text: as §1

[2] = tested on: oxaliplatin-induced cold hypersensitivity; test: Oxaliplatin-induced cold allodynia in mice (acetone drop test); type: in vivo
Text: It is established that treatments with the chemotherapeutic drug oxaliplatin (OXA) induce painful peripheral neuropathy, known as CIPN, which becomes more pronounced in cold conditions. The TRPM8 channel has been implicated in mouse models of CIPN pain induced by OXA [19, 51]. In fact, the OXA-induced peripheral neuropathy mouse model is being used for the pharmacological characterization of TRPM8 antagonists. For this peripheral neuropathy assay, mice were subcutaneously (s.c.) injected with OXA at a dose of 6 mg/kg dose on days 1, 3 and 5 to male mice to induce increased sensitivity to cold, which can be monitored through the acetone drop test.
Consequently, compounds 34 and 35 have been tested for their ability to alleviate OXA-induced cold hypersensitivity after intraplantar administration (i.pl., 3, 1 and 0.1 μg). […] This effect was observed 15 min post-administration and sustained up to 60 min.
as §3
Figure 4 Effects of compounds 34 (A) and 35 (B) on the oxaliplatin (OXP)-induced cold hypersensitivity (drop acetone test). Peripheral neuropathy was induced in male mice by injecting OXA (6 mg/kg, s.c.) on days 1, 3 and 5. Control animals were treated with vehicle. Compounds 34 (A) and 35 (B) (3 µg/i.pl., 1 µg/i.pl. and 0.1 µg/i.pl.) were administered to the OXP-treated animals, and the time-course of cold hypersensitivity was measured. Data are given ± SEM (n = 5). Statistical analysis, comparing with oxaliplatin-treated mice, was performed by two-way ANOVA followed by post hoc Bonferroni test by multiple comparisons: * […], ** p < 0.01, **** p < 0.0001.

hASIC3 channel = target: T2, hASIC3 channel (Homo sapiens, UniProt Q9UHC3); test: ASIC3 channel functional assay (buffer pH 5.5); type: cell-based
T2 construct: Eurofins-CEREP or Eurofins-PANLABS (contract assay)
T2 sequence (Q9UHC3 1-531): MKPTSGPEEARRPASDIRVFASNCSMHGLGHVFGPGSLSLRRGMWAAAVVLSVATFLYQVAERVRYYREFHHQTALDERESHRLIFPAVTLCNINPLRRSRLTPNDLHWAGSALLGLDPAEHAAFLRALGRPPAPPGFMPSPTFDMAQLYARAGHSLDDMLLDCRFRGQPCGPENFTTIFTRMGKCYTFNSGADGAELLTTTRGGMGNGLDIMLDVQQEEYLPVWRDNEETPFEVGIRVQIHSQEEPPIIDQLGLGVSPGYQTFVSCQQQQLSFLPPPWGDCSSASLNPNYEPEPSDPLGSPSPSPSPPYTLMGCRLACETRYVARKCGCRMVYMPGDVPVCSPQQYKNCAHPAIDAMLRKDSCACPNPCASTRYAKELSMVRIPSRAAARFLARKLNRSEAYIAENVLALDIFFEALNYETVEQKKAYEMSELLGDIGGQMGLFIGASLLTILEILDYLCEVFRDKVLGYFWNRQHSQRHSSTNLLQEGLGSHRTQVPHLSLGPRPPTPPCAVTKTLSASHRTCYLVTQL
Text: as §2, with “The effects of compound 34 have been evaluated on different ion channels and receptors implicated in pain-related processes to assess the selectivity for TRPM8 channels. First,” for “First,”
as §3

[3] = target: T3, rat TRPM8 channel (rTRPM8) (Rattus norvegicus, UniProt Q8R455); test: Ca2+ microfluorimetry, menthol-induced Ca2+ entry in HEK293 cells overexpressing rTRPM8; type: cell-based; details: Table 3; rTRPM8, HEK293, activation by 100 µM menthol
T3 construct: expressed in transfected cells
T3 sequence (Q8R455 whole entry): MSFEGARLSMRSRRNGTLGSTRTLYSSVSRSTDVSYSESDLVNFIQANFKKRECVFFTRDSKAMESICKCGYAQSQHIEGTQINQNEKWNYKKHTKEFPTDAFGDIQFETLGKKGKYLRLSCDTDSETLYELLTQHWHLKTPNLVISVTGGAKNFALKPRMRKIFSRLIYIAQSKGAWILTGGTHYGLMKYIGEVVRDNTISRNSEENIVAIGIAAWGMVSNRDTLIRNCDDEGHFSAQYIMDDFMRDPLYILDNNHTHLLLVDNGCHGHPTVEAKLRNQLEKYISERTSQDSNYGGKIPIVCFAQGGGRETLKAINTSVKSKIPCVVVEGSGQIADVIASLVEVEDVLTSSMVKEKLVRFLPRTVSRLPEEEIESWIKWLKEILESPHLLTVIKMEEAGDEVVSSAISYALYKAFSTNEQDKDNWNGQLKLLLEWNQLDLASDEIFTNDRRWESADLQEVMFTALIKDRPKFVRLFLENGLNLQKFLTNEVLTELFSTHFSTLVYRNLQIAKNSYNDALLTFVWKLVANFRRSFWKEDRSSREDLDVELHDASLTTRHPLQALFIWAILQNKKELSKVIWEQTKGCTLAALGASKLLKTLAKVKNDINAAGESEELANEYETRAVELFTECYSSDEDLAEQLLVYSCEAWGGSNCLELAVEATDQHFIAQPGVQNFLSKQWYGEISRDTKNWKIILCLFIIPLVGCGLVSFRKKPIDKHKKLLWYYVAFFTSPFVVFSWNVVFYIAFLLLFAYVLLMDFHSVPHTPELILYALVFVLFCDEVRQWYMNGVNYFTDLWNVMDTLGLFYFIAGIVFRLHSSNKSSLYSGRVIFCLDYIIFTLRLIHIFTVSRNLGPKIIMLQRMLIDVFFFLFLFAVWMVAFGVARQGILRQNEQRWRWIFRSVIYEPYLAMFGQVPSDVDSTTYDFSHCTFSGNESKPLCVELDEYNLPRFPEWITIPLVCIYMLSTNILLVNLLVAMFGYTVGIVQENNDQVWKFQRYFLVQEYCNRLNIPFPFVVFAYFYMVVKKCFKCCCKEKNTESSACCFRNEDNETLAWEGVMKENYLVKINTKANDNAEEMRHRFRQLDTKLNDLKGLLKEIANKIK
Method: The diastereomeric 1,4,4-trisubstitutes β-lactams were evaluated as modulators of the TRPM8 channel by calcium microfluorimetry assays. These assays use a Human Embryonic Kidney 293 (HEK293) cell line that stably overexpressed rat TRPM8 channel (rTRPM8). […] Three separated experiments in triplicate were used.
The initial biological evaluation of this series of 1,3,4,4-tetrasubstituted β-lactams was performed by calcium microfluorimetry assays using the indicated HEK293 cell line overexpressing rTRPM8 channels.
as §3

Sequence of hCGRPR (Q16602 23-461): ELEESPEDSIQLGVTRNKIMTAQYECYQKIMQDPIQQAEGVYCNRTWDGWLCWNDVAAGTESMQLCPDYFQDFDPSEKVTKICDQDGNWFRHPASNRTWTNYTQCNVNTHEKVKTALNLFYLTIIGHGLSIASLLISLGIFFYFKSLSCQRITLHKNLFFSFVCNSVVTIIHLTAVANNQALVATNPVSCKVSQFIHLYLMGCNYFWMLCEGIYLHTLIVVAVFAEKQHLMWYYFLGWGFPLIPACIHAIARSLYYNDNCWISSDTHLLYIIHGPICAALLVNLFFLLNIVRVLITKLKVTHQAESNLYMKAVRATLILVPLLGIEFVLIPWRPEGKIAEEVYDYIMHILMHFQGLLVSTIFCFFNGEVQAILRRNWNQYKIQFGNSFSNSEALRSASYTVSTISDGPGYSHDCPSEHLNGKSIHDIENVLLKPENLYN
Sequence of hCGRPR (O60894 27-148): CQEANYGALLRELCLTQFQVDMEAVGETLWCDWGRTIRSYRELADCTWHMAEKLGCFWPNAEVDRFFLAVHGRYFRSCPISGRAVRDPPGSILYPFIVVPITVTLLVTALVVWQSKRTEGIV

CC(C)CNC(=O)[C@]1(Cc2ccccc2)[C@H](C)C(=O)N1C[C@H](Cc1ccccc1)N(Cc1ccccc1)Cc1ccccc1 [Compound 34, 4S-Benzyl-4-[N-(iso-butyl)-carbamoyl]-3S-methyl-1-[(2′S-dibenzylamino-3′-phenyl)prop-1′-yl]-2-oxoazetidine]
inhibition at 10 µM (hCGRPR): -11.9 ± 5.2% | effect on resting membrane potential (RMP) [1]: did not alter the RMP | inhibition at 10 µM (hTRPM3): 6.9 ± 10.7% | activation on the TRPV1 channel (hTRPV1; 10 µM): did not show activation | inhibition at 10 µM (hTRPV1; 10 μM, agonist capsaicin 30 nM): 8.9 ± 2.9% | inhibition at 10 µM (hCB2): 7 ± 2.1% | time the antiallodynic effect is sustained ([2]; i.pl., observed from 15 min post-administration): up to 60 min | effect on cold-induced paw licking ([2]; male mice, OXA 6 mg/kg s.c. days 1, 3, 5, i.pl. 3, 1 and 0.1 μg): dose-dependent and significant reduction | inhibition at 10 µM (hASIC3 channel): 2.2 ± 9.6% | IC50 [3]: 300 nM
